According to US4788188A, “Quinolylglycinamide derivatives, the process for preparation thereof and their therapeutic application as psychotropic drugs” (Sanofi (S.A.), priority 1985, dated 1988):
Like-named read-outs stand apart in the source and are kept apart here.

Experiments:
[1] = molecular target: benzodiazepine receptors; test: Affinity for benzodiazepine receptors: inhibition of specific binding of [3H]flunitrazepam (WASTEK et al., modified); design: species or system rats; settings: 50% inhibition of specific binding of [3H]flunitrazepam, rat brain membranes
Procedure: This study was performed according to the technique of WASTEK et al., (Europ. J. Pharmacol., 1978, 50, 445-447) slightly modified.
Rats are sacrificed by decapitation, and the brain is removed, ground, suspended, centrifuged and resuspended.
Samples of this suspension are incubated in the presence of [^3 H]flunitrazepam, alone or in the presence of increasing concentrations of the test compound.
The radioactivity bound on the membranes is then determined by liquid scintillation.
The concentration of product which 50% inhibits the specific binding of [^3 H]flunitrazepam (IC50) is thereby determined.

[2] = Hypnotic activity (method of JANSEN); assay type: in vivo, mice; settings: 95% confidence interval (FINNEY); for ED50: Mus musculus, ip, read-out: 50% hypnotic dose (confidence interval)
Procedure: The hypnotic activity of the compounds of the present invention was assessed by the method of JANSEN (J. Med. Pharm. Chem., 1959, 1, 281).
After treatment i.p., each mouse is carefully placed on its back. […] In each batch (10 mice per dose), the percentage of sleeping animals is noted. The 50% hypnotic dose and its 95% confidence interval were calculated according to FINNEY's (1971) method.

[3] = Hypnotic activity (method of JANSEN); assay type: in vivo, mice; settings: 95% confidence interval (FINNEY); for ED50: Mus musculus, iv, read-out: 50% hypnotic dose (confidence interval); for 50% hypnotic dose (confidence interval): i.v.
[4] = system: pentetrazole seizures; test: Anticonvulsant activity: protection against pentetrazole seizures (EVERETT and RICHARDS); assay type: in vivo, mice; settings: Mus musculus, po, 0.5 h, pentetrazole 125 mg/kg subcutaneously, no tonic seizures during 30 minutes, 95% confidence limits (FINNEY), read-out: ED50 (Confidence interval)
Procedure: The protective effect produced by the compound of the inventon against pentetrazole seizures was studied.
This test was carried out according to the method of EVERETT and RICHARDS (J. Pharm. Exp. Ther., 1944, 81, 402-407). The test products and reference products were administered orally (suspended in gum arabic) to batches of 10 mice, 30 minutes […] pentetrazole (125 mg/kg subcutaneously).

[5] = system: food neophobia; test: Anxiolytic activity: food neophobia test; assay type: in vivo, mice; settings: 30 minutes after treatment
Procedure: This activity was studied by the food neophobia test. In effect, a pronounced inhibition of the feed intake can be obtained in mice when both the food and the enclosure are unfamiliar to the aninal (R. J. STEPHENS, Brit. J. Pharmacol., 1973, 47, 145 P). All anxiolytics specifically counteract neophobia phenomena.
30 minutes after oral or subcutaneous treatment with the test derivatives and the reference products, the mice, fasted for 16 to 20 hours, are isolated in a translucent enclosure and placed in the presence of an unfamiliar food for 5 minutes.
The amounts consumed are evaluated in proportion to the weight of the animal.
In each batch, the mean consumption and also the percentage variation relative to the control batch are calculated in this manner.

[6] = comparison, L. PIERI et al., Arzneim. Forsch., 1981; route not given; cited from earlier work
[7] = Acute toxicity in mice (oral); settings: mouse, in vivo, oral administration
Description: The acute, chronic, sub-chronic and delayed toxicities were dealt with in this study. Performed on various animal species, the trials brought out the low toxicity and good tolerability of the derivatives of the invention.

CCOC(=O)c1cnc2ccc(C(F)(F)F)cc2c1NCC(=O)N(CC)CC [Derivative 4, 2-(3-Ethoxycarbonyl-6-trifluoromethyl-4-quinolyl)amino-N,N-diethylacetamide]
IC50 [1]: 97 nM | ED50 [2]: 27 mg/kg | ED50 [3]: 5 mg/kg

CCCN(CCC)C(=O)CNc1c(C(=O)OCC)cnc2ccc(C)cc12.Cl [Derivative 13, 2-(3-Ethoxycarbonyl-6-methyl-4-quinolyl)amino-N,N-dipropylacetamide hydrochloride]
IC50 [1]: 25 nM | ED50 [4]: 25 mg/kg | Percentage increase (food consumption relative to control batch) ([5]; dose 16 mg/kg, PO): 75%

CCCC(C)C1(CC)C(=O)NC(=S)NC1=O (centres unmarked) [thiopental sodium]
50% hypnotic dose [6]: 17 mg/kg

CNC1=Nc2ccc(Cl)cc2C(c2ccccc2)=[N+]([O-])C1 [Chlordiazepoxide, chlordiazepoxide, reference compound]
IC50 [1]: 950 nM | ED50 [4]: 7 mg/kg | Percentage increase (food consumption relative to control batch) ([5]; dose 16 mg/kg, PO): 73%

CCCN(CCC)C(=O)CN(C)c1c(C(=O)OCC)cnc2ccc(Cl)cc12 [Derivative 59, [N'-(3-Ethoxycarbonyl-6-chloro-4-quinolyl)-N'-methylamino]-N,N-dipropylacetamide]
ED50 [4]: 16 mg/kg | Percentage increase (food consumption relative to control batch) ([5]; dose 32 mg/kg, PO): 146%

Cc1ncc2n1-c1ccc(Cl)cc1C(c1ccccc1F)=NC2 [midazolam]
50% hypnotic dose [6]: 23 mg/kg

CCN(CC)C(=O)CNc1c(C(=O)O)cnc2ccc(Cl)cc12 [Derivative 43, 2-(3-Carboxy-6-chloro-4-quinolyl)amino-N,N-diethylacetamide]
LD50 [7]: 2200 mg/kg | IC50 [1]: 7 nM | Percentage increase (food consumption relative to control batch) ([5]; dose 64 mg/kg, SC): 75%

CCOC(=O)c1cnc2ccc(Cl)cc2c1N(C)CC(=O)N(CC)CC [Derivative 58, [N'-(3-Ethoxycarbonyl-6-chloro-4-quinolyl)-N'-methylamino]-N,N-diethylacetamide]
ED50 [4]: 44 mg/kg | Percentage increase (food consumption relative to control batch) ([5]; dose 64 mg/kg, SC): 80%

CCCN(CCC)C(=O)CNc1c(C(=O)OCC)cnc2ccc(OC)cc12 [Derivative 14, 2-(3-Ethoxycarbonyl-6-methoxy-4-quinolyl)amino-N,N-dipropylacetamide]
IC50 [1]: 17 nM | ED50 [4]: 40 mg/kg | ED50 [2]: 25 mg/kg | ED50 [3]: 5 mg/kg

CCCN(CCC)C(=O)CNc1c(C(=O)OCC)cnc2ccc(Br)cc12 [Derivative 17, 2-(3-Ethoxycarbonyl-6-bromo-4-quinolyl)amino-N,N-dipropylacetamide]
IC50 [1]: 8 nM | ED50 [4]: 18 mg/kg | Percentage increase (food consumption relative to control batch) ([5]; dose 32 mg/kg, SC): 75%

CCOC(=O)c1cnc2ccc(OC)cc2c1NCC(=O)N(CC)CC [Derivative 3, 2-(3-Ethoxycarbonyl-6-methoxy-4-quinolyl)amino-N,N-diethylacetamide]
LD50 [7]: 1650 mg/kg | IC50 [1]: 55 nM | ED50 [2]: 27 mg/kg | ED50 [3]: 7 mg/kg

CCOC(=O)c1cnc2ccc(Cl)cc2c1NCC(=O)N(CC)CC [Derivative 1, 2-(3-Ethoxycarbonyl-6-chloro-4-quinolyl)amino-N,N-diethylacetamide]
LD50 [7]: 1800 mg/kg | IC50 [1]: 85 nM | ED50 [4]: 49 mg/kg

CCCN(CCC)C(=O)CNc1c(C(=O)OCC)cnc2ccc(Cl)cc12 [12 (Phosphate)]
ED50 [2]: 38 mg/kg | 50% hypnotic dose (confidence interval) [3]: 2 (1-4) mg/kg

CCOC(=O)c1cnc2ccc(OCC)cc2c1NCC(=O)N1CCCCC1 [Derivative 33, 1-{2-[(3-Ethoxycarbonyl-6-ethoxy-4-quinolyl)amino]acetyl}piperidine]
IC50 [1]: 54 nM | ED50 [2]: 15 mg/kg | ED50 [3]: 5 mg/kg

CCCN(CCC)C(=O)CNc1c(C(=O)O)cnc2ccc(Cl)cc12 [Derivative 46, 2-(3-Carboxy-6-chloro-4-quinolyl)amino-N,N-dipropylacetamide]
IC50 [1]: 1 nM | Percentage increase (food consumption relative to control batch) ([5]; dose 16 mg/kg, SC): 75%

CCOC(=O)c1cnc2ccc(OCC)cc2c1NCC(=O)N(CC)CC [Derivative 8]
IC50 [1]: 133 nM | ED50 [2]: 18 mg/kg | ED50 [3]: 5 mg/kg

CCN(CC)C(=O)CNc1c(C(=O)O)cnc2ccc(C)cc12 [Derivative 44, 2-(3-Carboxy-6-methyl-4-quinolyl)amino-N,N-diethylacetamide]
IC50 [1]: 46 nM | Percentage increase (food consumption relative to control batch) ([5]; dose 32 mg/kg, SC): 50%

CCOC(=O)c1cnc2ccc(Cl)cc2c1NCC(=O)N1CCCC(C)C1 (centres unmarked) [Derivative 38, 1-{2-[(3-Ethoxycarbonyl-6-chloro-4-quinolyl)amino]acetyl}-3-methylpiperidine]
IC50 [1]: 65 nM | ED50 [4]: 46 mg/kg | ED50 [2]: 28 mg/kg | ED50 [3]: 9 mg/kg

CCCC(C)(COC(N)=O)COC(N)=O [Meprobamate, reference compound]
ED50 [4]: 36 mg/kg | Percentage increase (food consumption relative to control batch) ([5]; dose 60 mg/kg, PO): 95%

CCCN(CCC)C(=O)CNc1c(C(=O)OCC)cnc2ccc(Cl)cc12 [12 (Sulphate)]
50% hypnotic dose (confidence interval) ([2]; i.p.): 30 (14-39) mg/kg | 50% hypnotic dose (confidence interval) [3]: 6 (4-15) mg/kg

CCCN(CCC)C(=O)CNc1c(C(=O)OCC)cnc2ccc(Cl)cc12 [Derivative 12, 2-(3-Ethoxycarbonyl-6-chloro-4-quinolyl)amino-N,N-dipropylacetamide]
IC50 [1]: 16 nM | ED50 [4]: 10 mg/kg | Percentage increase (food consumption relative to control batch) ([5]; dose 32 mg/kg, PO): 75%

CCOC(=O)c1cnc2ccc([N+](=O)[O-])cc2c1NCC(=O)N(CC)CC [Derivative 5, 2-(3-Ethoxycarbonyl-6-nitro-4-quinolyl)amino-N,N-diethylacetamide]
IC50 [1]: 97 nM | ED50 [4]: 50 mg/kg | ED50 [2]: 25 mg/kg | ED50 [3]: 9 mg/kg
